Laboratory results published in patent US6537990B1, “Combined preparations comprising morpholine anthracyclines and anticancer agent” (priority 1999, dated 2003).
Values joined by “and” are separate entries in the source; they are usually repeats but may differ in a detail not shown here. Equal entries are not always repeated. Structures can show the parent of a compound that is named as a salt. Where two headings read alike, the source gives them in different places.

Key:
[1] = tested on: tumor cells resistant to anthracyclines and presenting the mdr phenotype; conditions: in vitro and in vivo; cited from earlier work
[2] = tested on: tumor cells resistant to L-PAM, cisplatin (cDDP), CTX or Topoisomerase II inhibitors; conditions: cited from earlier work
[3] = tested on: disseminated L1210 murine leukemia; assay: Antileukemic activity against disseminated L1210 murine leukemia; format: in vivo, CD2F1 mice
[4] = in vivo; cited from earlier work

| SMILES | Activity on tumor cells resistant to anthracyclines and presenting the mdr phenotype [1] | Cross-resistance on resistant tumor cells ([2]; tumor cells resistant to CTX, L-Pam and cDDP) | ILS % (Increased in Life Span) ([3]; PNU-152243 alone, 0.05 mg/Kg/day iv, days +1, 2) [%] | Tox (Number of toxic deaths/number of mice) ([3]; PNU-152243 alone, 0.05 mg/Kg/day iv, days +1, 2, HCl, 0.05 mg/kg/day) | Tox (Number of toxic deaths/number of mice) ([3]; PNU-152243 alone, 0.05 mg/Kg/day iv, days +1, 2, listed as PNU 152243, HCl, 0.05 mg/kg/day) | Cross-resistance on resistant tumor cells ([2]; tumor cells resistant to L-PAM or cisplatin (cDDP), or to Topoisomerase II inhibitors (at-multidrug resistant)) | Optimal i.v. dose, fold less than that of doxorubicin [4] | ILS % (Increased in Life Span) ([3]; cDDP alone, 5.9 mg/Kg/day iv, day +3) [%] | Tox (Number of toxic deaths/number of mice) ([3]; cDDP alone, 5.9 mg/Kg/day iv, day +3, 5.9 mg/kg/day) | ILS % (Increased in Life Span) ([3]; cDDP alone, 7.7 mg/Kg/day iv, day +3) [%] | Tox (Number of toxic deaths/number of mice) ([3]; cDDP alone, 7.7 mg/Kg/day iv, day +3, 7.7 mg/kg/day) |
| --- | --- | --- | --- | --- | --- | --- | --- | --- | --- | --- | --- |
| CCC1(O)CC(OC2CC(N3CCOCC3)C(O)C(C)O2)c2c(O)c3c(c(O)c2C1O)C(=O)c1cccc(O)c1C3=O (stereo not drawn) [MX2, 3′-deamino-3′(4-morpholinyl)-13-deoxo-10-hydroxy-carminomycin] | active | No cross-resistance |  |  |  |  |  |  |  |  |  |
| COc1cccc2c1C(=O)c1c(O)c3c(c(O)c1C2=O)C[C@@](O)(C(=O)CO)C[C@@H]3O[C@H]1C[C@H](N2CCO[C@H](OC)C2)[C@H](O)[C@H](C)O1 [PNU-152243, 3′deamino-3′(2-methoxy-4-morpholinyl)doxorubicin. HCl] | active |  | 50 | 0/10 | without toxicity | No cross-resistance | at least 80 fold |  |  |  |  |
| [NH2][Pt]([NH2])([Cl])[Cl] [cDDP, cisplatin] |  |  |  |  |  |  |  | 33 | without toxicity and 0/10 | 33 | without toxicity and 0/10 |
